Literature values, collected in patent US20010006649A1, “STABLE ORAL PHARMACEUTICAL DOSAGE FORMS” (priority 1997, published 2001).

Key:
[1] = enteric granule formulations, alkaline stabilizers screened
[2] = omeprazole solution, pH-decomposition rate profile

Question: What does the source list for `Cc1c(OCC(F)(F)F)ccnc1C[S+]([O-])c1nc2ccccc2[nH]1` (stereo not drawn) [Lansoprazole, 2-[[[3-methyl-4-(2,2,2-trifluroethoxy)-2-pyridyl]methyl]sulfinyl] benzimidazole]?
Answer: optimal pH stability [1]: 9; stability when exposed to light: relatively stable

Question: For `COc1ccc2[nH]c([S+]([O-])Cc3ncc(C)c(OC)c3C)nc2c1` (stereo not drawn) [omeprazole, 2-[2-(3,5-dimethyl-4-methoxy)-pyridylmethylsulfinyl]-(5-methoxy)-benzimidazole], which “pH of maximum stability” value [2] is on record?
Answer: 11
